How the values were obtained:
HERG potassium channel = target: T1, HERG potassium channel (Homo sapiens, UniProt Q12809); format: binding
T1 construct: expressed in transfected cells; host or cells: HEK-293
Description: Cell paste of HEK-293 cells expressing the HERG product was suspended in 10-fold volume of 50 mM Tris buffer adjusted at pH 7.5 at 25° C. with 2 M HCl containing 1 mM MgCl2, 10 mM KCl. The cells were homogenized using a Polytron homogenizer (at the maximum power for 20 seconds) and centrifuged at 48,000 g for 20 minutes at 4° C. The pellet was resuspended, homogenized and centrifuged once more in the same manner. The resultant supernatant was discarded and the final pellet was resuspended (10-fold volume of 50 mM Tris buffer) and homogenized at the maximum power for 20 seconds. The membrane homogenate was aliquoted and stored at −80° C. until use. An aliquot was used for protein concentration determination using a Protein Assay Rapid Kit and ARVO SX plate reader (Wallac). […] Saturation was determined by incubating 20 μl of [^3H]-dofetilide and 160 μl of membrane homogenates (20-30 μg protein per well) for 60 min at room temperature in the absence or presence of 10 μM dofetilide at final concentrations (20 μl) for total or nonspecific binding, respectively. […] Receptor-bound radioactivity was quantified by liquid scintillation counting using Packard LS counter.
For the competition assay, compounds were diluted in 96 well polypropylene plates as 4-point dilutions in semi-log format. […] Receptor-bound radioactivity was quantified by counting Wallac MicroBeta plate counter.

human ORL1 receptor = target: T2, human ORL1 receptor (Homo sapiens, UniProt P41146); assay: ORL1-receptor binding assay ([3H]nociceptin, SPA); conditions: human ORL1 receptor transfected HEK-293 cell membranes, 0.4 nM [3H]nociceptin
T2 construct: purchased PerkinElmer; host or cells: HEK-293
T2 sequence (P41146 whole entry): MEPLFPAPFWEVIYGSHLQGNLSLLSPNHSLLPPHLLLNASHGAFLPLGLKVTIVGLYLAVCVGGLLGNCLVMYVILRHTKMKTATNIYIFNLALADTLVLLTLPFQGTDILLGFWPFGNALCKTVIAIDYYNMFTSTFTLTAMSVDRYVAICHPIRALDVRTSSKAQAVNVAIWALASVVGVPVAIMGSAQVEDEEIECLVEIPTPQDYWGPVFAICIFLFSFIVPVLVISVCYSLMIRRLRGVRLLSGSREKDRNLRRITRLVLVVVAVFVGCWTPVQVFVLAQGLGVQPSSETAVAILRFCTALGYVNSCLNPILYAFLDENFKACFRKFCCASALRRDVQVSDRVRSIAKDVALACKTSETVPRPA
Description: The human ORL1 receptor transfected HEK-293 cell membranes (PerkinElmer) were incubated for 45 min at room temperature with 0.4 nM [^3H]nociceptin, 1.0 mg of wheat germ agglutinin(WGA)-coated SPA beads and various concentrations of test compounds in a final volume of 200 μL of 50 mM HEPES buffer pH 7.4 containing 10 mM MgCl2 and 1 mM EDTA. Non-specific binding (NSB) was determined by the addition of 1 μM unlabeled nociceptin. After the reaction, the assay plate was centrifuged at 1,000 rpm for 1 min and then the radioactivity was measured by WALLAC 1450 MicroBeta Trilux.
The compounds of the examples were tested in the ORL1 Receptor Binding assay.

T1 sequence (Q12809 whole entry): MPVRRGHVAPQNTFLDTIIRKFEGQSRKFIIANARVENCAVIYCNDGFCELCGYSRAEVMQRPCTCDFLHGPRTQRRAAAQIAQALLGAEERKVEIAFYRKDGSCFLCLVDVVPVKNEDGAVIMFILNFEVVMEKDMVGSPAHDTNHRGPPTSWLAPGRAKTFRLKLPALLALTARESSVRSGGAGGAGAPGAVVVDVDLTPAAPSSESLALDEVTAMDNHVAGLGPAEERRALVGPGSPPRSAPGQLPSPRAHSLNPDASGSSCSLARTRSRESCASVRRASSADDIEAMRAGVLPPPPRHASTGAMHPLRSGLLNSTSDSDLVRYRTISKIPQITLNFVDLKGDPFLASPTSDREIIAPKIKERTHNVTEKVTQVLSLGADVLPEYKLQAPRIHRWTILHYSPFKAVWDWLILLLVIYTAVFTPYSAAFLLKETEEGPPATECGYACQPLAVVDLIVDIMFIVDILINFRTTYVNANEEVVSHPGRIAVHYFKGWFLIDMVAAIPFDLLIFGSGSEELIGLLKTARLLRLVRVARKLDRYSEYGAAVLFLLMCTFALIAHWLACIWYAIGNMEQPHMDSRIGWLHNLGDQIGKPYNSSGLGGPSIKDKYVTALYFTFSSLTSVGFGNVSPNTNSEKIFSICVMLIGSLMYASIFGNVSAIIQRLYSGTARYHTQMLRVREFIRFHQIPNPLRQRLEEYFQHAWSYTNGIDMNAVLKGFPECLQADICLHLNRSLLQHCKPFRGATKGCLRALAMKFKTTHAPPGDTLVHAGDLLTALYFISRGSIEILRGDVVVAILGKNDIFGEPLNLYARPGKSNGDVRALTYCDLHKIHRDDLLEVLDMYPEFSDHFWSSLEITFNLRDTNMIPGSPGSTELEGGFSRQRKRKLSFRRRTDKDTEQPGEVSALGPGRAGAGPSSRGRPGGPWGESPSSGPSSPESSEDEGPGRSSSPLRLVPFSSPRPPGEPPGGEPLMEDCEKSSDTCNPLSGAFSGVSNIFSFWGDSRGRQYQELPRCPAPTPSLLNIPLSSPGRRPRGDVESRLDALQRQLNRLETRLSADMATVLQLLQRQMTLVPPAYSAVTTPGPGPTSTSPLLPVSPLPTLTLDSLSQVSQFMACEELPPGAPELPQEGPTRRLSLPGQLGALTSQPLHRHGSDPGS

Row | Compound | activity in the dofetilide binding assay (HERG potassium channel) | predicted HERG potassium channel inhibitory activity (HERG potassium channel) | Ki (human ORL1 receptor) [nM]
1 | CN1C(=O)C(CN2CCC3(CCc4ccccc43)CC2)Cc2ccccc21 (stereo not drawn) [Compound (i)] | potent activity | high | 
2 | O=C(O)C(Cc1cc(O)ccc1Cl)CN1C2CCC1CC1(C2)OCCc2cc(F)ccc21 (stereo not drawn) [Example 9, 2-(2-Chloro-5-hydroxybenzyl)-3-(6′-fluoro-3′,4′-dihydro-8H-spiro[8-azabicyclo[3.2.1]octane-3,1′-isochromen]-8-yl)propanoic acid] |  |  | 1.2
3 | O=C(O)C(Cc1ccccc1Cl)CN1C2CCC1CC1(C2)OCc2ccc(F)cc21 (stereo not drawn) [Example 8, 2-(2-Chlorobenzyl)-3-(6′-fluoro-3′H,8H-spiro[8-azabicyclo[3.2.1]octane-3,1′-[2]benzofuran]-8-yl)propanoic acid] |  |  | 3.4
4 | O=C(O)C(Cc1cc(O)ccc1Cl)CN1C2CCC1CC1(C2)OCc2ccc(F)cc21 (stereo not drawn) [Example 10, 2-(2-Chloro-5-hydroxybenzyl)-3-(6′-fluoro-3′H,8H-spiro[8-azabicyclo[3.2.1]octane-3,1′-[2]benzofuran]-8-yl)propanoic acid] |  |  | 3.3
5 | O=C(O)C(Cc1ccccc1Cl)CN1C2CCC1CC1(C2)OCCc2cc(F)ccc21 (stereo not drawn) [Example 7, 2-(2-Chlorobenzyl)-3-(6′-fluoro-3′,4′-dihydro-8H-spiro[8-azabicyclo[3.2.1]octane-3,1′-isochromen]-8-yl)propanoic acid] |  |  | 1.3

From patent publication US20080207665A1, “Alpha-(Aryl-or Heteroaryl-Methyl)-Beta-Piperidinopropanoic Acid Compounds as Orl-1-Receptor Antagonists” (Pfizer Inc., priority 2005, published 2008)
